Results published in ChEMBL document CHEMBL4038342, “Hydrophilic, Potent, and Selective 7-Substituted 2-Aminoquinolines as Improved Human Neuronal Nitric Oxide Synthase Inhibitors” (J Med Chem, 2017).

Experiments:
[1] = biological target: T1, Nitric oxide synthase 3 (Bos taurus, UniProt P29473); test: Inhibition of recombinant bovine eNOS expressed in Escherichia coli using L-arginine as substrate after 30 secs by hemoglobin capture assay
T1 sequence (P29473 whole entry): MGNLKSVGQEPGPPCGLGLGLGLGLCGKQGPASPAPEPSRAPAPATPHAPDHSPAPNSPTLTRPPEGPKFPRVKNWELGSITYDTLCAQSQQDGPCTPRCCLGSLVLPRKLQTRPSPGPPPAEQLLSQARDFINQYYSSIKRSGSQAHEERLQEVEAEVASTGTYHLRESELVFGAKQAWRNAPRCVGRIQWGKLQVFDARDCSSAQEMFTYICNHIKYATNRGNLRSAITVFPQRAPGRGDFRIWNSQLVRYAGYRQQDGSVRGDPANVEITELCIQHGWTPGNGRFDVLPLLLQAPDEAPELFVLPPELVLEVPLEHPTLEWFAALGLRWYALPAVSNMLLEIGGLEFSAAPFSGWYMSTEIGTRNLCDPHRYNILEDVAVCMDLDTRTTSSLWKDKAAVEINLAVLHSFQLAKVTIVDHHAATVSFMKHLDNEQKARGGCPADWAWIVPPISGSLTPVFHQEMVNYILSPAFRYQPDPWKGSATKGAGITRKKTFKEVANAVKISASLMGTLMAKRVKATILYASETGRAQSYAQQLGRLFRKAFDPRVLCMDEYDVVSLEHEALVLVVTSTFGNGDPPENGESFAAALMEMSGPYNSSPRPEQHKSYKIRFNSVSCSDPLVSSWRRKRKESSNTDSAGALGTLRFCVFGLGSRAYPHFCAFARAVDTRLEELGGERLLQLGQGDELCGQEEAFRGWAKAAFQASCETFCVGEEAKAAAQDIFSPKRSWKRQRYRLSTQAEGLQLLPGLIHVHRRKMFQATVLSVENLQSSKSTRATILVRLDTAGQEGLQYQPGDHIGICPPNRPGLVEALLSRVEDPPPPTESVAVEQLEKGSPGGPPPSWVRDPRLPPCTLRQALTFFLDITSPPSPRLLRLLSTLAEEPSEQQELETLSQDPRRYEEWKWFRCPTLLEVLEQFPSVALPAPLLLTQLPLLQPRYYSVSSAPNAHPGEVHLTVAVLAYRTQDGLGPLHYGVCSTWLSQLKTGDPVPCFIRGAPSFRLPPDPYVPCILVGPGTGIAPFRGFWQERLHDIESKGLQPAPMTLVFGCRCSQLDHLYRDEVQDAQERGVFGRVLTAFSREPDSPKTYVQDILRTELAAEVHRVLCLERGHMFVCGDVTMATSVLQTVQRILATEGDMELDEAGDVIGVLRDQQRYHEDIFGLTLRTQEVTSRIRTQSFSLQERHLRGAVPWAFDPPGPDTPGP

[2] = biological target: Nitric oxide synthase 1 (Rattus norvegicus, UniProt P29476)
Sequence of Nitric oxide synthase 1 (Rattus norvegicus, UniProt P29476) (P29476 whole entry): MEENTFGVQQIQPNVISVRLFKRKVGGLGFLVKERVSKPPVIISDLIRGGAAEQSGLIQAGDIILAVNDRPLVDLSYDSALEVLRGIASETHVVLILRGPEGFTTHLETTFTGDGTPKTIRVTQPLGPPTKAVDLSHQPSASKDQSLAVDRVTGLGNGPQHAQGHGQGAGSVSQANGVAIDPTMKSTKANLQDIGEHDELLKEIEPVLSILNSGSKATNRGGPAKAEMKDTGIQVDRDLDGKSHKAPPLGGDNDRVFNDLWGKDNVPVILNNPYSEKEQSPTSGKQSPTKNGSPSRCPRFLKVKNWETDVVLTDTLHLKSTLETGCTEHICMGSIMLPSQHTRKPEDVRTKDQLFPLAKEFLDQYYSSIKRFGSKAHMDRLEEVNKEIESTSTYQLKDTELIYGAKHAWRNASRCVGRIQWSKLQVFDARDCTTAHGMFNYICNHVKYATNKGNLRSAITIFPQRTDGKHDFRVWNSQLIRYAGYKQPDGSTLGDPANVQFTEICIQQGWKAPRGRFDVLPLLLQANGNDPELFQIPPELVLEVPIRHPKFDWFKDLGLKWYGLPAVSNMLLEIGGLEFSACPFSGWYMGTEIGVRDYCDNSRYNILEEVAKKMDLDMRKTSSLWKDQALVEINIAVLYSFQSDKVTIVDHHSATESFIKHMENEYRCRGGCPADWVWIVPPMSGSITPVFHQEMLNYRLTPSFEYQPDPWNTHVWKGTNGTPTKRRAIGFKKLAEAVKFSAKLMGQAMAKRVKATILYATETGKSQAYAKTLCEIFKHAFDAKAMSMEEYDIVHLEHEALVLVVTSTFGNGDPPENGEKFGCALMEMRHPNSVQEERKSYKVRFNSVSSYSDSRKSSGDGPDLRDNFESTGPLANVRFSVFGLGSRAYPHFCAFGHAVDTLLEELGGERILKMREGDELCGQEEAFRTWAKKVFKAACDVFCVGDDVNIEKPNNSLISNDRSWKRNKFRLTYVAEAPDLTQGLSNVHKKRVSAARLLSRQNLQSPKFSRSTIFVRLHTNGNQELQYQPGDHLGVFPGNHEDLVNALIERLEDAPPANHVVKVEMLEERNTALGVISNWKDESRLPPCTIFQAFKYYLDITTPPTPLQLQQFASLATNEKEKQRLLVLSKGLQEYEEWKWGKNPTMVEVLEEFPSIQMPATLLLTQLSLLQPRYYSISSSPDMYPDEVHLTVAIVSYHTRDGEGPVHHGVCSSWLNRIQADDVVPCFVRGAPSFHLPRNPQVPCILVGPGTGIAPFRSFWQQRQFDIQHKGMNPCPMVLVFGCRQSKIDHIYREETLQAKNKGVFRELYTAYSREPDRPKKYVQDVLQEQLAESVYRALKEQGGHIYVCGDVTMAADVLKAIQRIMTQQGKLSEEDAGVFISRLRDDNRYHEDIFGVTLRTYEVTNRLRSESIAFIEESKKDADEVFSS
Description: Inhibition of recombinant rat nNOS expressed in Escherichia coli using L-arginine as substrate after 30 secs by hemoglobin capture assay

[3] = biological target: Nitric oxide synthase 1 (Homo sapiens, UniProt P29475)
Sequence of Nitric oxide synthase 1 (Homo sapiens, UniProt P29475) (P29475 whole entry): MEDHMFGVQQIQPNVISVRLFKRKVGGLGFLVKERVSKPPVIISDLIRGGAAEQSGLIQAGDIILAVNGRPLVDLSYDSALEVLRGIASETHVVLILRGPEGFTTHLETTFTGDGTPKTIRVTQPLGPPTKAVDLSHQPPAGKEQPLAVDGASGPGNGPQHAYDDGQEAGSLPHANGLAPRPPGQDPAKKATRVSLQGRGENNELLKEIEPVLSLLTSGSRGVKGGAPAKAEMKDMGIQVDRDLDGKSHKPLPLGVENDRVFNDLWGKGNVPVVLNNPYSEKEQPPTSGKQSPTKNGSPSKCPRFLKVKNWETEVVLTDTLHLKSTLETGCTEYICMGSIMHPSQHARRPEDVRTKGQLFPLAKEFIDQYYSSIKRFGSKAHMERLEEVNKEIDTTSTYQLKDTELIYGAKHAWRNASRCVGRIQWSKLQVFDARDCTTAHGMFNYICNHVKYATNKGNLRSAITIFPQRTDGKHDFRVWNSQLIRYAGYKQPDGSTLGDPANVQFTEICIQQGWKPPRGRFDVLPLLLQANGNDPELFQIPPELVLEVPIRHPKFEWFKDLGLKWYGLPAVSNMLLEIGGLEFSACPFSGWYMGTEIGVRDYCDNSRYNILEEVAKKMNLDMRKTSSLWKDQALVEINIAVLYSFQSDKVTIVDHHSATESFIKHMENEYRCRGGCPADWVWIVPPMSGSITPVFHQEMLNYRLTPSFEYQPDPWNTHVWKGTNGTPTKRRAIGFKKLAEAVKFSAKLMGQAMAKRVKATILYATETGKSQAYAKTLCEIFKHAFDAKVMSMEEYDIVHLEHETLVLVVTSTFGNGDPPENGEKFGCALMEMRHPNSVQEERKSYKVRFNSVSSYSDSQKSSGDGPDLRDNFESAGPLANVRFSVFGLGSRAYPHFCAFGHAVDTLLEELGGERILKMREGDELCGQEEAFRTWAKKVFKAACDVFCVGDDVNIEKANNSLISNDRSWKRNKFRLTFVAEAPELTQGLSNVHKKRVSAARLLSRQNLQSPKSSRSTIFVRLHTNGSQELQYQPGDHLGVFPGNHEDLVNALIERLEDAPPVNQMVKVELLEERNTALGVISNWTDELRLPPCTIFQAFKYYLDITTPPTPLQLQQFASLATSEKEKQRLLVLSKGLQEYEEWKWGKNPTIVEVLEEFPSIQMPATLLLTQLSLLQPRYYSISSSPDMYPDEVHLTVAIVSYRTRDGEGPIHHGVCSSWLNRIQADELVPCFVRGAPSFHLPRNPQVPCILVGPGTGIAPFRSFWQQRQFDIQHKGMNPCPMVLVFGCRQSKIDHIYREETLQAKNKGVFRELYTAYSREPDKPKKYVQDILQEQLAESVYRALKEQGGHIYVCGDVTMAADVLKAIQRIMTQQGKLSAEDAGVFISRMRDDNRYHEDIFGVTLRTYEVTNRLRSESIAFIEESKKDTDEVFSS
Description: Inhibition of recombinant human nNOS expressed in Escherichia coli using L-arginine as substrate after 30 secs by hemoglobin capture assay

[4] = Permeability from apical to basolateral side in human Caco2 cells assessed as drug recovery at 10 uM after 2 hrs by LC/MS/MS analysis; assay type: ADME, cell-based; details: caco-2, 2 h
[5] = Permeability from basolateral to apical side in human Caco2 cells assessed as drug recovery at 10 uM after 2 hrs by LC/MS/MS analysis; assay type: ADME, cell-based; details: caco-2, 2 h
[6] = biological target: T2, Nitric oxide synthase, inducible (Mus musculus, UniProt P29477); test: Inhibition of recombinant mouse macrophage iNOS expressed in Escherichia coli using L-arginine as substrate after 30 secs by hemoglobin capture assay
T2 sequence (P29477 whole entry): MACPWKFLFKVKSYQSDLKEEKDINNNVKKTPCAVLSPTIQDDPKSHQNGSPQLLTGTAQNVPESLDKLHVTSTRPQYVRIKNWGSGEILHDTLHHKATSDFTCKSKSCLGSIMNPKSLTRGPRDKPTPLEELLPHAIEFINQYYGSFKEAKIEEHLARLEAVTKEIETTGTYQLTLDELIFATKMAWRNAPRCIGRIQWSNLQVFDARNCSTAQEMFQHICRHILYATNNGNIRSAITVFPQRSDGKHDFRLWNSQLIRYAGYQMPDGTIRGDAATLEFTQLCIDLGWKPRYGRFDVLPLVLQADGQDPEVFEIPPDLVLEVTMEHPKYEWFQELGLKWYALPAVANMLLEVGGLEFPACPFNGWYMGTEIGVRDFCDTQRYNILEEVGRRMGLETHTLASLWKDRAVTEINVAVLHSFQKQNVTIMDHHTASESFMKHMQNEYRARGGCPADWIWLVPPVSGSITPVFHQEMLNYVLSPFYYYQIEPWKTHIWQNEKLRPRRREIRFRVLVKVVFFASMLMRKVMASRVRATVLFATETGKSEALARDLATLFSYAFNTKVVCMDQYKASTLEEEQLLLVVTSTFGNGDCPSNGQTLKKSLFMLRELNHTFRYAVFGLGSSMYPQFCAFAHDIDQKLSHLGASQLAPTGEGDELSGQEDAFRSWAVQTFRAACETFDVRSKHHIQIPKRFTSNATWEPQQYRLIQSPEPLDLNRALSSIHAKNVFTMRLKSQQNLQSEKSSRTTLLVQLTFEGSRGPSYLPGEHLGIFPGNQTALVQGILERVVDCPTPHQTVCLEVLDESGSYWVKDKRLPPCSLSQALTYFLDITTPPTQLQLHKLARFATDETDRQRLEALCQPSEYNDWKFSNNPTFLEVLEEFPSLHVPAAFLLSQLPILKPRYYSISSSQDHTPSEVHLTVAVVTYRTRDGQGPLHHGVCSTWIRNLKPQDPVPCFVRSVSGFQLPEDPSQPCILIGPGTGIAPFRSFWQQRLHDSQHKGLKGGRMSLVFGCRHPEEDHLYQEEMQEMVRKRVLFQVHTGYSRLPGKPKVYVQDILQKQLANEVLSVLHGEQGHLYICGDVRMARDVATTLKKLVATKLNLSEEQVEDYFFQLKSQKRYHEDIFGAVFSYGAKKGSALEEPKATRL

| Structure (SMILES) | Ki [1] [nM] | Ki [2] [nM] | Ki [3] [nM] | Drug recovery [4] [%] | Drug recovery [5] [%] | Ki [6] [nM] |
| --- | --- | --- | --- | --- | --- | --- |
| Nc1ccc2ccc(CNCCCc3cccnc3)cc2n1 | 1040 | 38 | 108 | – | – | – |
| Cc1cc(CCNCc2ccc3c(C)cc(N)nc3c2)ccc1C#N | – | – | – | 58.5 | 83 | – |
| Cc1ccncc1CCCNCc1ccc2ccc(N)nc2c1 | 562 | – | 130 | – | – | 13800 |
| CN(C)c1ccc(CNCc2ccc3ccc(N)nc3c2)cc1 | 8420 | 522 | – | – | – | 42200 |
| CN(C)c1cccc(CNCc2ccc3ccc(N)nc3c2)c1 | 6530 | 421 | 1020 | – | – | 30100 |
| COc1ccncc1CCCNCc1ccc2ccc(N)nc2c1 | – | – | – | – | – | 17200 |
